The text below walks through data of paper PMC3145798, “The Extracytoplasmic Domain of the Mycobacterium tuberculosis Ser/Thr Kinase PknB Binds Specific Muropeptides and Is Required for PknB Localization” (PLoS Pathogens, 2011).

“Also recorded” adds a separate entry of the source. *1 amine or outer side, *2 acyl side, *3 side chain or, on linkers, in order; H or OH if unused. Where a SMILES comes first, the peptide text is derived from it. [ ]: non-standard residue; d: D form. Mur = C[C@@H](O[C@H]1[C@H](O)[C@@H](CO)OC(O)[C@@H]1N[*:1])C(=O)[*:2]; d(isoGln) = NC(=O)[C@@H](CCC(=O)[*:2])N[*:1]

Assay [1] has as its target T1, extracytoplasmic domain of M. tuberculosis PknB (ED-PknB, PASTA domains) (Mycobacterium tuberculosis, UniProt P9WI81).
T1 construct: GST (N, cleaved yes); made in house; host or cells: Escherichia coli BL21 (DE3)
T1 sequence (P9WI81 354-626): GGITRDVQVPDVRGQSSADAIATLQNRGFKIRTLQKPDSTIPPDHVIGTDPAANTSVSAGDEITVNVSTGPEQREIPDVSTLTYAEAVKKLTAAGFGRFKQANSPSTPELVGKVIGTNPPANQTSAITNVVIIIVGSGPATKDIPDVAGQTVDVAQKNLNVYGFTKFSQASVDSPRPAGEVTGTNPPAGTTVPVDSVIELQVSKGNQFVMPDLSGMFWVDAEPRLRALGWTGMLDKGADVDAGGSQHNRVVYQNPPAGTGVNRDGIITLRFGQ
Put plainly: Surface plasmon resonance (Biacore) binding of synthetic muropeptides to immobilized ED-PknB. On the set-up: ka1: unit not given here. The note with it: for decrease in binding compared to compound 6a: ratio of affinities relative to 6a; for ka1 / ka2 / kd1 / kd2 / Kd: two-state binding model; for ka1 / ka2 / kd1 / kd2: 25°C. In general terms: Surface plasmon resonance follows binding to a sensor surface in real time, without labels.

Assay [2] has as its system dormant M. tuberculosis H37Rv cells. Put plainly: Dormancy and resuscitation assay (most probable number). The note with it: for Fold increase in viable cell number relative to cultures grown in Sauton's medium without additive: muropeptide at 10 times the KD of 6c, spent medium 50%, MPN after 2 months at 37°C; for increase in viability relative to cells in fresh medium alone: two independent experiments (6 or 9 months hypoxic), experiment not assigned, most probable number analysis. Format: cell-based, Mycobacterium tuberculosis H37Rv.

[3] abbreviates: SPR Biacore T100, ED-PknB on CM-5 chip (5,000 RU), HBS-EP pH 7.4, 25°C, Table 1 and text.
[4] abbreviates: Table S1, SPR, ED-PknB on CM-5 chip (5,000 RU).
Where [5] appears, read: Experiment 1: 6 month old dormant culture.
Where [6] appears, read: Experiment 2: 9 month old dormant culture.

For the compound `CC(=O)N[C@H]1C(O)O[C@H](CO)[C@@H](O)[C@@H]1O[C@H](C)C(=O)N[C@@H](C)C(=O)N[C@H](CCC(=O)N[C@@H](CCC[C@@H](N)C(=O)O)C(=O)N[C@H](C)C(=O)N[C@H](C)C(N)=O)C(N)=O` (some centres unmarked) [MPP-DAP (amide/acid) 7], the “decrease in binding compared to compound 6a” value (“decrease in binding” for short) in assay [1] (SPR) is on record as “about two-fold”. Also, in assay [1] (Table S1, SPR), the ka1 is on record as 4316, the ka2 is on record as 1.4 10^-3 s^-1, the kd1 is reported as 161.5 10^-3 s^-1 and the kd2 is listed as 2.8 10^-3 s^-1.
As usually defined, the Kd is the concentration at which binding is half-saturated. Consider `CC(=O)N[C@H]1C(O)O[C@H](CO)[C@@H](O)[C@@H]1O[C@H](C)C(=O)N[C@@H](C)C(=O)N[C@H](CCC(=O)N[C@@H](CCCCN)C(=O)N[C@H](C)C(=O)N[C@H](C)C(N)=O)C(N)=O` (stereo partly drawn) [MPP-Lys (D-Ala) 3a] (Ac-[Mur]A[d(isoGln)]K[dA][dA]-NH2), for which the dissociation constant (Kd) in assay [1] (setting [3]) and in assay [1] (setting [4]) was > 500 µM in each case.
As for `CC(=O)N[C@H]1C(O)O[C@H](CO)[C@@H](O)[C@@H]1O[C@H](C)C(=O)N[C@@H](C)C(=O)N[C@H](CCC(=O)N[C@@H](CCCCN)C(=O)N[C@H](C)C(=O)NCC(N)=O)C(N)=O` (some centres unmarked) [MPP-Lys (Gly) 3b] (Ac-[Mur]A[d(isoGln)]K[dA]G-NH2), the Kd in assay [1] (setting [3]) and in assay [1] (setting [4]) was > 500 µM in each case. The “Fold increase in viable cell number relative to cultures grown in Sauton's medium without additive” value in assay [2] (setting [5]) is recorded as 0.9 fold; in assay [2] (setting [6]), 1 fold. Moreover, the “increase in viability relative to cells in fresh medium alone” value in assay [2] is given as “No increase in viability”.
For `CC(=O)N[C@H]1C(O)O[C@H](CO)[C@@H](O)[C@@H]1O[C@H](C)C(=O)N[C@@H](C)C(=O)N[C@H](CCC(=O)N[C@@H](CCC[C@@H](N)C(=O)O)C(N)=O)C(N)=O` (some centres unmarked) [MTP-DAP (amide/acid) 5], in assay [1] (Table S1, SPR), the ka1 is given as 5577, the ka2 is 1.64 10^-3 s^-1, the kd1 is reported as 172.9 10^-3 s^-1 and the kd2 is listed as 3.86 10^-3 s^-1.
Regarding `CC(=O)N[C@H]1C(O)O[C@H](CO)[C@@H](O)[C@@H]1O[C@H](C)C(=O)N[C@@H](C)C(=O)N[C@H](CCC(=O)N[C@@H](CCCCN)C(N)=O)C(N)=O` (some centres unmarked) [MTP-Lys (amide) 1], the Kd in assay [1] (setting [3]) and in assay [1] (setting [4]) was > 500 µM throughout.
As for `CC(=O)N[C@H]1C(O)O[C@H](CO)[C@@H](O)[C@@H]1O[C@H](C)C(=O)N[C@@H](C)C(=O)N[C@H](CCC(=O)N[C@@H](CCC[C@@H](N)C(=O)O)C(=O)N[C@H](C)C(N)=O)C(=O)O` (some centres unmarked) [MTrP-DAP (acid/acid) 6d], the “decrease in binding” value in assay [1] (SPR) was “four-fold”. Further, in assay [1] (Table S1, SPR), the ka1 was 1931, the ka2 is on record as 2.0 10^-3 s^-1, the kd1 is 168.7 10^-3 s^-1 and the kd2 is on record as 3.2 10^-3 s^-1.
As to `CC(=O)N[C@H]1C(O)O[C@H](CO)[C@@H](O)[C@@H]1O[C@H](C)C(=O)N[C@@H](C)C(=O)N[C@H](CCC(=O)N[C@@H](CCCC(N)C(N)=O)C(=O)N[C@H](C)C(N)=O)C(=O)O` (some centres unmarked) [MTrP-DAP (acid/amide) 6b], the “binding to ED-PknB in words” value in assay [1] (SPR) is listed as “did not show measurable binding”. The equilibrium dissociation constant (Kd) in assay [1] (setting [3]) and in assay [1] (setting [4]) was > 100 µM each time.
`CC(=O)N[C@H]1C(O)O[C@H](CO)[C@@H](O)[C@@H]1O[C@H](C)C(=O)N[C@@H](C)C(=O)N[C@H](CCC(=O)N[C@@H](CCC[C@@H](N)C(=O)O)C(=O)N[C@H](C)C(N)=O)C(N)=O` (some centres unmarked) [MTrP-DAP (amide/acid) 6a]: the “binding to ED-PknB in words” value in assay [1] (SPR) is “exhibited the highest affinity”. Also, in assay [1] (Table S1, SPR), the ka1 is 3451, the ka2 was 1.83 10^-3 s^-1, the kd1 is 100.7 10^-3 s^-1 and the kd2 is recorded as 1.4 10^-3 s^-1.
`CC(=O)N[C@H]1C(O)O[C@H](CO)[C@@H](O)[C@@H]1O[C@H](C)C(=O)N[C@@H](C)C(=O)N[C@H](CCC(=O)N[C@@H](CCC[C@@H](N)C(N)=O)C(=O)N[C@H](C)C(N)=O)C(N)=O` (some centres unmarked) [MTrP-DAP (amide/amide) 6c] had a Kd in assay [1] (setting [4]) of 14.9 µM. Moreover, in assay [1] (Table S1, SPR), the ka1 amounted to 342.8, the ka2 was 41.5 10^-3 s^-1, the kd1 was 57.8 10^-3 s^-1 and the kd2 was 4.02 10^-3 s^-1. For the same compound, the “Fold increase in viable cell number relative to cultures grown in Sauton's medium without additive” value in assay [2] (setting [5]) came to 9 fold. Further, in assay [2] (setting [6]), the “Fold increase in viable cell number relative to cultures grown in Sauton's medium without additive” value is reported as 3 fold. The “increase in viability relative to cells in fresh medium alone” value in assay [2] was “three; also recorded: nine-fold”.
Take `CC(=O)N[C@H](CCC[C@H](NC(=O)CC[C@@H](NC(=O)[C@H](C)NC(=O)[C@@H](C)O[C@H]1[C@H](O)[C@@H](CO)OC(O)[C@@H]1NC(C)=O)C(N)=O)C(=O)N[C@H](C)C(N)=O)C(=O)O` (some centres unmarked) [MTrP-DAP(amide/acid)NHAc 6e]: the “decrease in binding” value in assay [1] (SPR) is “six-fold”. In addition, in assay [1] (Table S1, SPR), the ka1 worked out at 354.2, the ka2 is 6.6 10^-3 s^-1, the kd1 is listed as 106 10^-3 s^-1 and the kd2 is given as 2.2 10^-3 s^-1.
For `CC(=O)NCCCC[C@H](NC(=O)CC[C@@H](NC(=O)[C@H](C)NC(=O)[C@@H](C)O[C@H]1[C@H](O)[C@@H](CO)OC(O)[C@@H]1NC(C)=O)C(N)=O)C(=O)N[C@H](C)C(N)=O` (some centres unmarked) [MTrP-Lys (amide) NHAc 2b], the Kd in assay [1] (setting [3]) and in assay [1] (setting [4]) was > 500 µM throughout.
In the case of `C[C@H](N)C(=O)N[C@H](CCC(=O)N[C@@H](CCCCN)C(=O)N[C@H](C)C(=O)N[C@H](C)C(N)=O)C(N)=O` [Peptide 4 (amide)] (H-A[d(isoGln)]K[dA][dA]-NH2; N-terminus assumed), in assay [1] (SPR), the “binding to ED-PknB in words” value is listed as “Neither compound showed significant interaction”.
As for `CC(=O)N[C@@H](C)C(=O)N[C@H](CCC(=O)N[C@@H](CCCC(N)C(=O)O)C(=O)N[C@H](C)C(=O)N[C@H](C)C(N)=O)C(N)=O` (some centres unmarked) [Peptide 8 (amide/amide)], the “binding to ED-PknB in words” value in assay [1] (SPR) is listed as “Neither compound showed significant interaction”. For the same compound, the Kd in assay [1] (setting [3]) and in assay [1] (setting [4]) was > 500 µM in each case.
